The source of these data is patent EP4567035A1, “NOVEL COMPOUND AS HYPOXIA-INDUCIBLE FACTOR 1(HIF-1) INHIBITOR OR VASCULAR ENDOTHELIAL GROWTH FACTOR (VEGF) INHIBITOR, AND PHARMACEUTICAL COMPOSITION COMPRISING SAME” (Nextgen Bioscience Co., Ltd., priority 2022, dated 2024).

pIC50: −log10 of the molar value.

One assay has as its target T1, HIF-1α (Homo sapiens, UniProt Q16665).
T1 construct: endogenous in cells; host or cells: ARPE-19 (ATCC CRL-2302)
The assay is described as follows: Analysis of HIF-1α protein expression (Western blot) in ARPE-19 cells under mixed hypoxic condition. Format: cell-based. Conditions: values marked * in the table, mixed hypoxic condition (1% oxygen + CoCl2) for 24 hours, concentration range at which HIF-1α expression is reduced by 50% vs untreated control, read-out: IC50 HIF-1α, Hypoxia(24h). Summed up: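 ARPE-19 cells were pretreated 16 h or 2 h with compound (0.1 nM–10 µM, serum-free DMEM/F12), then held 1 h or 24 h in mixed hypoxia (1% O2 plus CoCl2). HIF-1α was quantified by Western blot against β-actin; the concentration range giving ≥50% reduction vs untreated control was reported.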
On the technique in general: A western blot detects proteins with antibodies after separation by electrophoresis.

The test system of another assay is VEGF. The assay is described as follows: Evaluation of VEGF protein secretion level (Human VEGF ELISA) in ARPE-19 cell medium under hypoxic conditions. The class given is cell-based. The conditions noted are these: ARPE-19 cells; pretreated 2 hours, 24 hours hypoxic conditions; secreted VEGF in medium supernatant by ELISA; concentration range reducing VEGF by 50% vs untreated control; read-out: IC50 VEGF. Summed up:
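Human ARPE-19 cells were pretreated 2 h with compound (0.1 nM–10 µM, in DMEM/F12 with 1% FBS), then held 24 h in hypoxia (1% O2, 5% CO2). Secreted VEGF in the supernatant was quantified by ELISA (A450). The value is the concentration range giving ≥50% VEGF reduction versus untreated control.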
Background: An ELISA detects its analyte on a solid surface through an enzyme-linked reagent.

T1 sequence (Q16665 whole entry): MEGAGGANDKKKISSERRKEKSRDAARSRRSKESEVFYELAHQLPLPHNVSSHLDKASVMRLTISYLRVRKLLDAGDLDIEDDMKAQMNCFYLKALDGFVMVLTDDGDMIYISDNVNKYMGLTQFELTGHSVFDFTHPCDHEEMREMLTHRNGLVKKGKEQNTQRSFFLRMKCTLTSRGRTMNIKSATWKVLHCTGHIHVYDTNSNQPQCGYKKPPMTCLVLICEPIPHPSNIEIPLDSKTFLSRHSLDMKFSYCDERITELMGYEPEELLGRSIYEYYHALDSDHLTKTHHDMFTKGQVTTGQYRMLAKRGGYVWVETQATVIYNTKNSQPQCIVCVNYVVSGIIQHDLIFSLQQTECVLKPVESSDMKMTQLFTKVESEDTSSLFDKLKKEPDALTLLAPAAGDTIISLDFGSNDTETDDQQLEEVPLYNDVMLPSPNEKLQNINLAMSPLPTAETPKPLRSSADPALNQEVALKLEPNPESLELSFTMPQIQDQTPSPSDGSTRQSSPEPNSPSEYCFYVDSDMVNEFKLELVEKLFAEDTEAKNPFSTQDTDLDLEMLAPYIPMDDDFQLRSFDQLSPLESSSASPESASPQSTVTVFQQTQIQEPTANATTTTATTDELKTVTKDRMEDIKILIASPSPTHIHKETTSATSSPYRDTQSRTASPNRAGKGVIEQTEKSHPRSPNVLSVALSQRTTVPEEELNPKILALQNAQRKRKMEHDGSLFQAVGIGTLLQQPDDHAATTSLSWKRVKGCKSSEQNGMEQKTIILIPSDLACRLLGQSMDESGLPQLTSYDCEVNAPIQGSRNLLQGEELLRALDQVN

As for `O=C(NCc1cc(F)cc(-n2cc(-c3ccc(F)cc3)cn2)c1)c1ncnc2nc(C3CCCC3)[nH]c12` [Example 149, 8-Cyclopentyl-N-(3-fluoro-5-(4-(4-fluorophenyl)-1H-pyrazol-1-yl)benzyl)-7H-purine-6-carboxamide], at HIF-1α, the DC50 is 100 to 1000 nM. In the assay on VEGF, the pIC50 was less than 5.00.

Take `COC(=O)C(Cc1ccc(-n2cc(-c3cc(F)cc(CNC(=O)c4ncnc5nc(C6CCCC6)[nH]c45)c3)cn2)cc1)NC(=O)c1ncnc2nc(C3CCCC3)[nH]c12` (stereo not shown) [Example 150, Methyl 2-(8-cyclopentyl-7H-purine-6-carboxamido)-3-(4-(4-(3-((8-cyclopentyl-7H-purine-6-carboxamido)methyl)-5-fluorophenyl)-1H-pyrazol-1-yl)phenyl)propanoate]: at HIF-1α, the DC50 lay in the range of 100 to 1000 nM. Besides, in the assay with VEGF, the pIC50 is less than 5.00.

For the compound `[2H]C([2H])([2H])n1cc(Nc2cc(F)cc(CNC(=O)c3ncnc4nc(C5CCCC5)[nH]c34)c2)cn1` [Example 151, 8-Cyclopentyl-N-(3-fluoro-5-((1-(methyl-d3)-1H-pyrazol-4-yl)amino)benzyl)-7H-purine-6-carboxamide], the DC50 at HIF-1α is less than 100 nM. In the assay with VEGF, the pIC50 was 6.00 to 7.00.

For `[2H]C([2H])([2H])n1cc(Nc2cc(F)cc(CNC(=O)c3ncnc4nc(C5CCC(F)(F)C5)[nH]c34)c2)cn1` (stereo not shown) [Example 152, 8-(3,3-Difluorocyclopentyl)-N-(3-fluoro-5-((1-(methyl-d3)-1H-pyrazol-4-yl)amino)benzyl)-7H-purine-6-carboxamide], the DC50 on HIF-1α is less than 100 nM. The pIC50 in the assay with VEGF is 6.00 to 7.00.

As to `[2H]C1([2H])C(c2nc3ncnc(C(=O)NCc4cc(F)cc(-c5cnn(-c6ccc(F)cc6)c5)c4)c3[nH]2)C([2H])([2H])C([2H])([2H])C1([2H])[2H]` [Example 153, 8-(Cyclopentyl-2,2,3,3,4,4,5,5-d8)-N-(3-fluoro-5-(1-(4-fluorophenyl)-1H-pyrazol-4-yl)benzyl)-7H-purine-6-carboxamide], the DC50 on HIF-1α was less than 100 nM. Besides, the pIC50 in the assay on VEGF was 6.00 to 7.00.

Broadly, the pIC50 is the negative decadic logarithm of the IC50, by convention in mol/L.
